Test results as given in patent US20210038559A1, “CANNABINOIDS AND DERIVATIVES FOR PROMOTING IMMUNOGENICITY OF TUMOR AND INFECTED CELLS” (priority 2018, published 2021).
Where two headings read alike, the source gives them in different places.

Tested on: MHC-I expression by COLO 205 cells
Experiment: cells
Type: cell-based, human
Conditions: for fold induction at 35 µM: Homo sapiens, COLO 205, 48 h, read-out: Induction Fold
Protocol: A panel of synthetic cannabinoids (Cayman Chemical, #9002891) was tested for MHC class I-inducing capability in COLO 205 cells as described above. COLO 205 cells were treated with the compounds at a concentration of 35 μM and evaluated for cell surface MHC class I expression after 48 hours. Cells were harvested, stained with MHC-I mAb W6/32 (Thermo Fisher). MHC-I expression was determined by flow cytometry.

[1] = MHC-I expression, COLO 205 cells, compounds at 35 μM, 48 hours, flow cytometry (W6/32)

1-naphthalenyl[1-(4-penten-1-yl)-1H-indol-3-yl]-methanone [Example 73]
Induction Fold: 2.68 Fold

1-naphthalenyl[5-(1-naphthalenyl)-1-pentyl-1H-pyrrol-3-yl]-methanone [Example 214]
Induction Fold: 1.80 Fold

COc1cccc2c(C(=O)N3CCN(C)C(C)C3)cn(CC3CCCCC3)c12 (racemic) [Example 277, [1-(cyclohexylmethyl)-7-methoxy-1H-indol-3-yl](3,4-dimethyl-1-piperazinyl)-methanone]
fold induction at 35 µM [1]: 1.5

CCCCCC(C)(C)c1ccc([C@H]2CCC[C@@H](O)C2)c(O)c1 (relative stereo) [Example 209, cis-5-(1,1-dimethylhexyl)-2-(3-hydroxycyclohexyl)-phenol]
fold induction at 35 µM [1]: 1.84

CCCCCCCC(C)(C)c1ccc([C@@H]2CCC[C@H](O)C2)c(O)c1 (relative stereo) [Example 241, rel-5-(1,1-dimethyloctyl)-2-[(1R,3S)-3-hydroxycyclohexyl]-phenol]
fold induction at 35 µM [1]: 1.68

CCCCCCCC(C)(C)c1ccc([C@H]2CCC[C@H](O)C2)c(O)c1 (relative stereo) [Example 301, rel-2-[(1S,3S)-3-hydroxycyclohexyl)]-5-(2-methylnonan-2-yl)phenol]
Induction Fold [1]: 1.41 Fold

CCCCCCC(C)(C)c1ccc([C@@H]2CCC[C@H](O)C2)c(O)c1 (relative stereo) [Example 353, rel-5-(1,1-dimethylheptyl)-2-[(1R,3S)-3-hydroxycyclohexyl]-phenol]
fold induction at 35 µM [1]: 1.06

CCCCCCCCC(C)(C)c1ccc([C@H]2CCC[C@@H](O)C2)c(O)c1 (relative stereo) [Example 374, cis-5-(1,1-dimethylnonyl)-2-(3-hydroxycyclohexyl)-phenol]
fold induction at 35 µM [1]: 0.49

CCCCCCC(C)(C)c1ccc([C@@H]2C[C@@H](O)CC[C@H]2CCCO)c(O)c1 (relative stereo) [Example 375, rel-2-((1R,2R,5S)-5-hydroxy-2-(3-hydroxypropyl)cyclohexyl)-5-(2-methyloctan-2-yl)phenol]
fold induction at 35 µM [1]: 0.33

CCCCCn1nc(C(=O)N[C@@H](CCCC)C(N)=O)c2ccccc21 (single isomer, unassigned) [Example 11]
fold induction at 35 µM [1]: 4.56

CCCCCn1nc(C(=O)N[C@H](C(N)=O)[C@@H](C)CC)c2ccccc21 (single isomer, unassigned) [Example 26]
fold induction at 35 µM [1]: 3.49

CCC(C(N)=O)N(C)C(=O)c1nn(Cc2ccc(F)cc2)c2ccccc12 (single isomer, unassigned) [Example 135, N-(1-amino-1-oxobutan-2-yl)-1-(4-fluorobenzyl)-N-methyl-1H-indazole-3-carboxamide]
fold induction at 35 µM [1]: 2.23

CCCCCn1nc(C(=O)NC(C)(C(N)=O)C(C)C)c2ccccc21 (single isomer, unassigned) [Example 151, N-(1-amino-2,3-dimethyl-1-oxobutan-2-yl)-1-pentyl-1H-indazole-3-carboxamide]
fold induction at 35 µM [1]: 2.13

CCCC(NC(=O)c1nn(Cc2ccc(F)cc2)c2ccccc12)C(N)=O (single isomer, unassigned) [Example 169, N-(1-amino-1-oxopentan-2-yl)-1-(4-fluorobenzyl)-1H-indazole-3-carboxamide]
fold induction at 35 µM [1]: 2.01

CCC(C)(NC(=O)c1nn(Cc2ccc(F)cc2)c2ccccc12)C(N)=O (single isomer, unassigned) [Example 287, N-(1-amino-2-methyl-1-oxobutan-2-yl)-1-(4-fluorobenzyl)-1H-indazole-3-carboxamide]
fold induction at 35 µM [1]: 1.45

CC[C@H](C)[C@H](NC(=O)c1nn(CCCCCF)c2ccccc12)C(N)=O (single isomer, unassigned) [Example 298]
fold induction at 35 µM [1]: 1.42

CC(C)(NC(=O)c1c2ccccc2nn1CCCCC#N)c1ccccc1 (single isomer, unassigned) [Example 299, 2-(4-cyanobutyl)-N-(2-phenylpropan-2-yl)-2H-indazole-3-carboxamide]
fold induction at 35 µM [1]: 1.42

O=C(NC1C2CC3CC(C2)CC1C3)c1nn(CC2CCOCC2)c2ccccc12 (single isomer, unassigned) [Example 352, N-(adamantan-2-yl)-1-((tetrahydro-2H-pyran-4-yl)methyl)-1H-indazole-3-carboxamide]
fold induction at 35 µM [1]: 1.07

O=C(NC12CC3CC(CC(C3)C1)C2)c1nn(CC2CCOCC2)c2ccccc12 (single isomer, unassigned) [Example 361, 1-[(tetrahydro-2H-pyran-4-yl)methyl]-N-tricyclo[3.3.1.1^3,7]dec-1-yl-1H-indazole-3-carboxamide]
fold induction at 35 µM [1]: 0.95

CN1CCCCC(Cn2cc(C(=O)c3cccc4ccccc34)c3ccccc32)C1 (stereo not drawn) [Example 6, (1-((1-methylazepan-3-yl)methyl)-1H-indol-3-yl)(naphthalen-1-yl)methanone]
fold induction at 35 µM [1]: 5.6

CN1CCCCC1Cn1cc(C(=O)c2cc([N+](=O)[O-])ccc2I)c2ccccc21 (stereo not drawn) [Example 7, (2-iodo-5-nitrophenyl)-(1-(1-methylpiperidin-2-ylmethyl)-1H-indol-3-yl)methanone]
fold induction at 35 µM [1]: 5.59

CCOC(=O)[C@@H](NC(=O)c1nn(Cc2ccc(F)cc2)c2ccccc12)C(C)C [Example 8, ethyl (1-(4-fluorobenzyl)-1H-indazole-3-carbonyl)-1-valinate]
Induction Fold [1]: 5.50 Fold

O=C(Oc1ccnc2ccccc12)c1cn(CC2CCCCC2)c2ccccc12 [Example 9, quinolin-4-yl 1-(cyclohexylmethyl)-1H-indole-3-carboxylate]
fold induction at 35 µM [1]: 5.41

CCCCCn1cc(C(=O)Oc2ccnc3ccccc23)c2ccccc21 [Example 10, quinolin-4-yl 1-pentyl-1H-indole-3-carboxylate]
fold induction at 35 µM [1]: 5.02

O=C(Oc1ccc2cccnc2c1)c1cn(CCCCCF)c2ccccc12 [Example 12, quinolin-7-yl 1-(5-fluoropentyl)-1H-indole-3-carboxylate]
fold induction at 35 µM [1]: 4.34

O=C(c1ccc2ccccc2c1)c1cn(CCN2CCOCC2)c2ccccc12 [Example 13, [1-[2-(4-morpholinyl)ethyl]-1H-indol-3-yl]-2-naphthalenyl-methanone]
fold induction at 35 µM [1]: 4.3

COC(=O)[C@@H](NC(=O)c1nn(CC2CCCCC2)c2ccccc12)C(C)C [Example 14, N-[[1-(cyclohexylmethyl)-1H-indazol-3-yl]carbonyl]-L-valine, methyl ester]
fold induction at 35 µM [1]: 4.2

COC(=O)[C@@H](NC(=O)c1nn(Cc2ccc(F)cc2)c2ccccc12)C(C)C [Example 15, N-[[1-[(4-fluorophenyl)methyl]-1H-indazol-3-yl]carbonyl]-L-valine, methyl ester]
fold induction at 35 µM [1]: 4.2

O=C(Oc1cccc2ccncc12)c1cn(CCCCCF)c2ccccc12 [Example 16, isoquinolin-8-yl 1-(5-fluoropentyl)-1H-indole-3-carboxylate]
fold induction at 35 µM [1]: 4.19

CCCCCn1cc(C(=O)Oc2cccc3ccncc23)c2ccccc21 [Example 17, isoquinolin-8-yl 1-pentyl-1H-indole-3-carboxylate]
fold induction at 35 µM [1]: 4.11

CCCCCn1cc(C(=O)Oc2ccc3cccnc3c2)c2ccccc21 [Example 18, quinolin-7-yl 1-pentyl-1H-indole-3-carboxylate]
fold induction at 35 µM [1]: 4.08

O=C(Oc1cncc2ccccc12)c1cn(CCCCCF)c2ccccc12 [Example 19, isoquinolin-4-yl 1-(5-fluoropentyl)-1H-indole-3-carboxylate]
fold induction at 35 µM [1]: 4.06

CCCCCn1cc(C(=O)c2ccccc2OC)c2ccccc21 [Example 20, (2-methoxyphenyl)(1-pentyl-1H-indol-3-yl)-methanone]
fold induction at 35 µM [1]: 3.98

COc1ccc(C(=O)c2cn(CCN3CCOCC3)c3ccccc23)c2ccccc12 [Example 21, (4-methoxy-1-naphthalenyl)[1-[2-(4-morpholinyl)ethyl]-1H-indol-3-yl]-methanone]
fold induction at 35 µM [1]: 3.85

CCCCn1cc(C(=O)c2c(C)ccc3ccccc23)c2ccccc21 [Example 22, (1-butyl-1H-indol-3-yl)(2-methylnaphthalen-1-yl)methanone]
fold induction at 35 µM [1]: 3.84

CN1CCCC[C@@H]1Cn1cc(C(=O)c2cc([N+](=O)[O-])ccc2I)c2ccccc21 [Example 23, (2-iodo-5-nitrophenyl)[1-[[(2R)-1-methyl-2-piperidinyl]methyl]-1H-indol-3-yl]methanone]
fold induction at 35 µM [1]: 3.64

CN1CCCCC(n2cc(C(=O)c3ccccc3I)c3ccccc32)C1 (stereo not drawn) [Example 24, (2-iodophenyl)(1-(1-methylazepan-3-yl)-1H-indol-3-yl)methanone]
fold induction at 35 µM [1]: 3.64

CCCCCn1cc(C(=O)c2c(C)ccc3ccccc23)c2ccccc21 [Example 25, (2-methylnaphthalen-1-yl)(1-pentyl-1H-indol-3-yl)methanone]
fold induction at 35 µM [1]: 3.6

Cc1c(C(=O)c2ccccc2)c(N)c(-c2ccccc2)n1Cc1ccc(Cl)cc1 [Example 27, [4-amino-1-[(4-chlorophenyl)methyl]-2-methyl-5-phenyl-1H-pyrrol-3-yl]phenyl-methanone]
fold induction at 35 µM [1]: 3.43

CCCCCn1cc(C(=O)Cc2cccc(OC)c2)c2ccccc21 [Example 28, 2-(3-methoxyphenyl)-1-(1-pentyl-1H-indol-3-y1)-ethanone]
Induction Fold: 3.42 Fold

NC(=O)[C@H](Cc1ccccc1)NC(=O)c1nn(CC2CCCCC2)c2ccccc12 [Example 29, N-[(1S)-2-amino-2-oxo-1-(phenylmethyl)ethyl]-1-(cyclohexylmethyl)-1H-Indazole-3-carboxamide]
fold induction at 35 µM [1]: 3.41

O=C(Oc1ccc2ncccc2c1)c1cn(CCCCCF)c2ccccc12 [Example 30, quinolin-6-yl 1-(5-fluoropentyl)-1H-indole-3-carboxylate]
fold induction at 35 µM [1]: 3.4
